# Measured values published in US20040121968A1, “Antiangiogenesis by inhibiting protein kinase CK2 activity” (priority 2002, published 2004).
# How the values were obtained:
# [1] = tested on: normal REC and DR REC gene expression; assay: Gene array analysis of growth factor action on normal and DR REC; assay type: cell-based, human; details: 10 ng/mL growth factor, seven days, 0.5% serum
# Experimental: Normal REC and DR REC gene expression patterns were compared by gene array analysis. Normal, diabetic and DR autopsy human eyes are obtained from National Disease Research Interchange (NDRI), within 24 hours after death. These eyes are used to isolate REC for culture as described hereinabove. Cultures can be used up to the fourth passage, and viable cultures can be cryogenically stored. Cultures of normal, diabetic and DR REC are established from autopsy human eyes and routinely checked for purity using von Willebrand factor immunostaining as described hereinabove. Cells are cultured in 50% F-12, 50% low-glucose DMEM with antibiotics/antimycotics (GIBCO/BRL), insulin-transferrin-selenite, ECGS (Sigma Chemical Co.), and 20% FCS. Statistical analysis of results is done with GraphPad Prism software (GraphPad Software).
# In experiments, normal, diabetic, and DR REC were grown for seven days with or without 10 ng/ml VEGF, or 10 ng/mL IGF-I, or 10 ng/mL each VEGF and IGF-I, in medium with 0.5% serum. Long-term rather than short-term treatment was chosen because diabetes develops over a considerable time period. RNA isolated from REC was reverse-transcribed using Smart™ cDNA synthesis method (Clontech), to produce full-length cDNA. Two normal cases or two DR cases were pooled together. This cDNA was PCR-amplified with a short number of cycles and used as a probe for Clontech Atlas Human 1.2 1,200-gene arrays, according to the manufacturer's instructions. This technique had previously been refined and verified by Northern analysis and fully correlated gene array data with protein expression. (Spirin K S et al., Analysis of gene expression in human bullous keratopathy corneas containing limiting amounts of RNA, Invest. Ophthalmol. Vis. Sci. 40:3108-3115 [1999]). Samples were normalized to several housekeeping genes and the analysis was done with available AtlasImage 2.0 software (Clontech). Signal ratio>2 between samples was considered significant as per manufacturer's recommendation.
# [2] = tested on: retinal endothelial cells (REC); assay: Secondary sprouting assay on Matrigel; assay type: cell-based, bovine; details: for inhibition of REC secondary sprouting: basal and growth factor-stimulated (quercetin 50 μM, emodin, DRB 20-25 μM), H-7: preliminary, not shown
# Experimental: (§1) In vitro Matrigel™ assay of capillary-like tube formation and secondary sprouting. […] Briefly, 50 μL of reconstituted basement membrane matrix from mouse EHS tumor (BD or GFR Matrigel™; Becton Dickinson Labware, Bedford, Mass.) were dispensed with frozen pipettes into each well of a previously frozen, sterile 96-well plate sitting on wet ice and allowed to solidify for 1 hr at room temperature or 37° C. Approximately 5×10^4 or 7.5×10^4 REC in a 100 μL volume were seeded into each triplicate well. Human recombinant or purified growth factors were added to a final concentration of 10 ng/mL (or as noted) in 0.5% FCS incomplete BREC medium. Capillary-like tube structures formed by REC on reconstituted basement membrane matrix were photographed at various intervals ranging from 12-72 hr; pictures were scanned, digitized and analyzed using image-processing software. For the secondary sprouting assay, cells on reconstituted basement membrane matrix (BD Matrigel™) were seeded as above but incubated in 0.5% FCS incomplete BREC medium without any growth factors for 3 days, allowing for tube formation and collapse. On day 3, human recombinant or purified growth factors were added to a final concentration of 10 ng/mL (or as noted) in low-serum incomplete BREC medium and incubated for another 5-6 days. Digital photographs were obtained with a Kodak MDS 100 camera attached to a Leitz DM IL inverted microscope. Digitized images obtained with a Kodak MDS 100 video camera were stored on compact discs and quantified with NIH Image 1.62 software. The number of living cells in the sprouting colonies were determined using the MTS cell proliferation assay.
# (§2) The cells form tubes on Matrigel™ by 16 hr, and by 48 hr, without TN-C or growth factors, the tubes collapse. Secondary sprouting with Matrigel™ invasion starts by day four in culture. Cultures were monitored microscopically. Culture medium with or without growth factors or inhibitors was changed every two-three days.
# [3] = Solubility in water / vehicle; assay type: physicochemical
# [4] = tested on: oxygen-induced retinopathy in newborn mice; assay: Oxygen-induced retinopathy in newborn mice (retinal neovascularization); assay type: in vivo, mouse; details: for retinal neovascularization diminished by: two intraperitoneal injections daily, day 11-17 after birth, emodin 20-30 μg/g, vs untreated or vehicle-treated
# [5] = tested on: retinal endothelial cells (REC); assay: REC survival assay (low serum, MTS cell number); assay type: cell-based, bovine
# Experimental: REC proliferation and survival assays. 96-well plates were coated with various amounts of TN-C or vehicle. 5×10^3 cells were added to each triplicate well in low-serum REC medium with various amounts of growth factors (0.5% FCS incomplete BREC medium containing 10 ng/ml of human IGF-I, FGF-2, VEGF, PlGF and PDGF-BB [R&D Systems Inc., Minneapolis, Minn.]). Cell numbers were determined on days 4-7 using the MTS cell proliferation assay (Promega Corp.) according to manufacturer's instructions. Survival was measured in the same way using high glucose (30 mM) or chemical hypoxia (2 mM sodium azide) or serum-free medium to induce cell death. Cell numbers were determined on days 4-7 using MTS assay (Promega).
# [6] = tested on: retinal endothelial cells (REC); assay: Migration (wound healing) assay; assay type: cell-based, bovine; details: for inhibition of REC migration: basal and growth factor-stimulated (quercetin 50 μM, emodin, DRB 20-25 μM), H-7: preliminary, not shown; for effect on growth factor-mediated cell migration: bovine REC, four GFs (IGF-1+FGF-2+VEGF+PlGF) 10 ng/ml each, 7 days, 0.5% serum, emodin 10 μM, DRB 15 μM
# Experimental: Migration assay. REC migration rates were examined in a wound healing assay, where cells migrate over time into the scrape wound in a monolayer. Briefly, cells were seeded in 24-well plates and allowed to reach confluence in growth medium. Prior to growth factor treatment, cells were serum-starved overnight in incomplete BREC medium with 0.5% FCS. All monolayers within an experiment were wounded with a single sterile wood stick of constant diameter, to ensure uniformity in the wound areas among different treatments. Wounded monolayers were then rinsed with low-serum medium to remove detached cells and treated with various combinations of human growth factors at 10 ng/mL each. On day 7, cells were rinsed 3× with PBS and fixed with methanol for 15 min, rehydrated with dH2O and stained with Meyer's hematoxylin for 5 min, followed by destaining with dH2O. All wells were photographed with a 4× or 10× objective using a Kodak MDS 100 digital camera attached to a Leitz DM IL inverted microscope. The original wound area was measured at 0 hr and used as a baseline for comparison to the treated wells at the conclusion of the experiment. The number of cells migrated into the wound was determined. Migrating cell counting was automated using the AAB (Advanced American Biotechnology, Fullerton, Calif.) software. Data were calculated and statistically analyzed (Spirin K S et al., Basement membrane and growth factor gene expression in normal and diabetic human retinas, Curr. Eye Res. 18:490-499 [1999]) relative to control cultures that received the same concentrations of bovine serum albumin instead of growth factors and/or inhibitor, compared to vehicle instead of inhibitor after wounding. Inhibitors were added 30 min before growth factors.
# [7] = tested on: retinal endothelial cells (REC); assay: Matrigel assay of capillary-like tube formation; assay type: cell-based, bovine; details: for inhibition of REC tube formation: basal and growth factor-stimulated (quercetin 50 μM, emodin, DRB 20-25 μM)
# Experimental: as §1, §2
# [8] = tested on: retinal endothelial cells (REC); assay: REC proliferation assay (MTS cell number); assay type: cell-based, bovine; details: for inhibition of REC proliferation: basal and growth factor-stimulated (quercetin 50 μM, emodin, DRB 20-25 μM), H-7: preliminary, not shown
# Experimental: REC proliferation and survival assays. 96-well plates were coated with various amounts of TN-C or vehicle. […] Cell numbers were determined on days 4-7 using the MTS cell proliferation assay (Promega Corp.) according to manufacturer's instructions. Survival was measured in the same way using high glucose (30 mM) or chemical hypoxia (2 mM sodium azide) or serum-free medium to induce cell death. Cell numbers were determined on days 4-7 using MTS assay (Promega).
# [9] = growth factors at 10 ng/ml each
# [10] = emodin-treated vs vehicle control
compound,measurement,setting,value
IGF-I: insulin-like growth factor (IGF)-I,expression of pro-apoptotic genes,[1],decrease
FGF-2: fibroblast growth factor (FGF)-2,growth factor effect on secondary sprouting (in words),[2]; 10 ng/mL growth factor,greatly enhanced
same,stimulation of secondary sprouting (fold),"[2]; growth factors, on average",four-fold
"OC[C@H]1O[C@@H](n2cnc3cc(Cl)c(Cl)cc32)[C@H](O)[C@@H]1O [DRB, 5,6-dichloro-1-β-D-ribofuranosylbenzimidazole]",solubility in water,[3],not easily dissolved in water
same,retinal neovascularization diminished by,[4],about 60%
same,effect on number of live cells (survival),"[5]; bovine REC, 0.5% serum, various concentrations, day 6, MTS",significantly lowers cell number
same,inhibition of REC migration,[6],potently inhibited
same,effect on growth factor-mediated cell migration,[6],significant inhibitory effect
same,inhibition of REC secondary sprouting,[2],potently inhibited
same,concentration from which cell number in secondary sprouting is significantly decreased,"[2]; bovine REC on Matrigel, 0.5% serum, day 9, MTS",≥ 25 µM
same,inhibition of REC tube formation,[7],potently inhibited
same,inhibition of REC proliferation,[8],potently inhibited
same,effect on number of live cells (proliferation),"[8]; bovine REC, 10% serum, various concentrations, day 6, MTS",significantly lowers cell number
VEGF,growth factor effect on REC survival,[5]; [9],little effect
same,growth factor effect on REC migration,[6]; [9],significantly enhanced
same,expression of pro-apoptotic genes,[1],did not display an increase
same,expression of proliferation-related genes,[1],upregulated
O=c1c(O)c(-c2ccc(O)c(O)c2)oc2cc(O)cc(O)c12 [quercetin],effect on retinal neovascularization,"[4]; intramuscular injections, data not shown",substantial effect
same,inhibition of REC migration,[6],potently inhibited
same,inhibition of REC secondary sprouting,[2],potently inhibited
same,inhibition of REC tube formation,[7],potently inhibited
same,inhibition of REC proliferation,[8],potently inhibited
CC1CNCCN1S(=O)(=O)c1cccc2cnccc12 (stereo not drawn) [H-7],inhibition of REC migration,[6],inhibited
same,inhibition of REC secondary sprouting,[2],inhibited
same,effect on REC tubes on Matrigel,"[7]; preliminary results, not shown",stabilized
same,inhibition of REC proliferation,[8],inhibited
"Cc1cc(O)c2c(c1)C(=O)c1cc(O)cc(O)c1C2=O [emodin, 3-methyl-1,6,8-trihydroxyanthraquinone]",solubility in water,[3],not easily dissolved in water
same,solubility in vehicle,"[3]; phosphate-buffered saline with 20% PEG 400 + 2% Tween-80, pH 7.2",did not ensure emodin solubility
same,neovascular tufts in fluorescein angiograms,[4]; [10],much less pronounced
same,retinal vascularization in fluorescein angiograms,[4]; [10],significantly less vascularization
same,retinal neovascularization diminished by,[4],70-75%
same,inhibition of REC migration,[6],potently inhibited
same,effect on growth factor-mediated cell migration,[6],significant inhibitory effect
same,inhibition of REC secondary sprouting,[2],potently inhibited
same,inhibition of REC tube formation,[7],potently inhibited
same,inhibition of REC proliferation,[8],potently inhibited
